According to article PMC2453323 (PLoS Pathogens, 2008):

Columns and labels:
Assay type in all cases: biochemical
[1] = target: neuraminidase of A(H1N1) clinical isolate 0006/07 (Influenza A virus (H1N1), UniProt D5F1R0, K249G)
[2] = target: neuraminidase (H275Y) of A(H1N1) clinical isolate 0341/07 (Influenza A virus (H1N1), UniProt D5F1R0, D354G/H275Y)
[3] = target: neuraminidase (H275Y) of A(H1N1) clinical isolate 0577/07 (Influenza A virus (H1N1), UniProt D5F1R0, D354G/H275Y)
[4] = target: neuraminidase (H275Y) of A(H1N1) clinical isolate 0644/07 (Influenza A virus (H1N1), UniProt D5F1R0, D354G/H275Y)
[5] = target: neuraminidase (H275Y) of A(H1N1) clinical isolate 0749/07 (Influenza A virus (H1N1), UniProt D5F1R0, D354G/H275Y)
[6] = target: neuraminidase (H275Y) of A(H1N1) clinical isolate 0847/07 (Influenza A virus (H1N1), UniProt D5F1R0, D354G/H275Y)
[7] = target: neuraminidase (H275Y) of A(H1N1) clinical isolate 0910/08 (Influenza A virus (H1N1), UniProt G3LYR2)
[8] = target: neuraminidase (H275Y) of A(H1N1) clinical isolate 0963/08 (Influenza A virus (H1N1), UniProt G3LYR2, G354D)
[9] = target: neuraminidase (H275Y) of A(H1N1) clinical isolate 1154/08 (Influenza A virus (H1N1), UniProt G3LYR2)
[10] = target: neuraminidase (H275Y) of A(H1N1) clinical isolate 1157/08 (Influenza A virus (H1N1), UniProt G3LYR2, G214E)
[11] = target: neuraminidase (H275Y) of A(H1N1) clinical isolate 1170/08 (Influenza A virus (H1N1), UniProt G3LYR2)
[12] = target: neuraminidase (H275Y) of A(H1N1) clinical isolate 1208/08 (Influenza A virus (H1N1), UniProt G3LYR2)
[13] = target: neuraminidase (H275Y) of the 11 resistant H1N1 viruses from the 2007–2008 season (Influenza A virus (H1N1), UniProt G3LYQ1, H275Y); settings: read-out: Mean Km, group Mean

## CC(=O)N[C@@H]1[C@@H](O)C[C@](Oc2ccc3c(C)cc(=O)oc3c2)(C(=O)O)O[C@H]1C(O)[C@H](O)CO (stereo partly shown) [MUNANA]
[1]
  Km: 12.4 µM
[2]
  Km: 18 µM
[3]
  Km: 19.5 µM
[4]
  Km: 18.4 µM
[5]
  Km: 18 µM
[6]
  Km: 24 µM
[7]
  Km: 25 µM
[8]
  Km: 18.4 µM
[9]
  Km: 14.5 µM
[10]
  Km: 20 µM
[11]
  Km: 18.2 µM
[12]
  Km: 19 µM
[13]
  Km: 19.4 µM
